{"source": "patent US20030228357A1", "about": "“Dry granulated formulations of azithromycin” (Pfizer Inc., priority 2002, published 2003)", "test": "Density and Carr's Compressibility Index (flowability) of dry blends and dry granulations", "format": "physicochemical", "from_the_text": "Carr's Compressibility Index was used to evaluate the flowability of the four dry granulations. Carr's Compressibility Index is a simple test to evaluate flowability by comparing both the initial and final (tapped) bulk volumes and the rate of packing down. A useful empirical guide to flow is given by Carr's compressibility index: Compressibility Index(%)=[(tapped density−initial density)/tapped density]×100 […] The procedure is described in Int. J. Pharm. Tech. & Prod. Mfr., 6(3) 10-16, 1985.", "key": {"[1]": {"details": "35.2 wt % azithromycin, dicalcium phosphate anhydrous diluent, Long blend method"}, "[2]": {"details": "35.2 wt % azithromycin, dicalcium phosphate anhydrous diluent, Long blend method, slugged"}, "[3]": {"details": "35.2 wt % azithromycin, dicalcium phosphate anhydrous diluent, Short blend method"}, "[4]": {"details": "35.2 wt % azithromycin, dicalcium phosphate anhydrous diluent, Short blend method, slugged"}, "[5]": {"details": "Table 3A, low drug loading: 35.2 wt % azithromycin, 54.8 wt % dicalcium phosphate anhydrous, long blend"}, "[6]": {"details": "Table 3B, high drug loading: 58.2 wt % azithromycin, 31.8 wt % dicalcium phosphate anhydrous, long blend"}, "[7]": {"details": "Table 4A, low drug loading (35.2 wt % azithromycin), diluent DCP, anhyd."}, "[8]": {"details": "Table 4A, low drug loading (35.2 wt % azithromycin), diluent DCP, dihyd."}, "[9]": {"details": "Table 4B, high drug loading (58.2 wt % azithromycin), diluent DCP, anhyd."}, "[10]": {"details": "Table 4B, high drug loading (58.2 wt % azithromycin), diluent DCP, dihyd."}, "[11]": {"details": "Table 7, milled Form A lot, 58.2 wt % azithromycin, DCP anhydrous"}, "[12]": {"details": "Table 7, unmilled Form A lot, 58.2 wt % azithromycin, DCP anhydrous"}, "[13]": {"details": "Table 7A, 55.76 wt % azithromycin, lactose anhydrous, corn starch, roller compaction 850 psi, dihydrate"}, "[14]": {"details": "Table 7 Lot 1, milled, roller compaction, Roll Pressure Setting 850 psi"}, "[15]": {"details": "Table 7 Lot 2, milled, roller compaction, Roll Pressure Setting 300 psi"}, "[16]": {"details": "Table 7 Lot 3, unmilled, roller compaction, Roll Pressure Setting 500 psi"}, "[17]": {"details": "Table 7 Lot 4, unmilled, roller compaction, Roll Pressure Setting 300 psi"}}, "data": [{"smiles": "CC[C@H]1OC(=O)[C@H](C)[C@@H](O[C@H]2C[C@@](C)(OC)[C@@H](O)[C@H](C)O2)[C@H](C)[C@@H](O[C@@H]2O[C@H](C)C[C@H](N(C)C)[C@H]2O)[C@](C)(O)C[C@@H](C)CN(C)[C@H](C)[C@@H](O)[C@]1(C)O", "note": "[Form A, azithromycin dihydrate, reference compound]", "values": [{"measurement": "Dry Blend Carr's Index", "setting": "[1]", "value": 44, "unit": "%"}, {"measurement": "Dry Blend density As Is", "setting": "[1]", "value": 0.59, "unit": "g/cc"}, {"measurement": "Dry Blend density Tapped", "setting": "[1]", "value": 1.05, "unit": "g/cc"}, {"measurement": "Granulation Carr's Index", "setting": "[2]", "value": 26, "unit": "%"}, {"measurement": "Granulation Density As Is", "setting": "[2]", "value": 0.88, "unit": "g/cc"}, {"measurement": "Granulation Density Tapped", "setting": "[2]", "value": 1.19, "unit": "g/cc"}, {"measurement": "Dry Blend Carr's Index", "setting": "[3]", "value": 43, "unit": "%"}, {"measurement": "Dry Blend density As Is", "setting": "[3]", "value": 0.59, "unit": "g/cc"}, {"measurement": "Dry Blend density Tapped", "setting": "[3]", "value": 1.04, "unit": "g/cc"}, {"measurement": "Granulation Carr's Index", "setting": "[4]", "value": 32, "unit": "%"}, {"measurement": "Granulation Density As Is", "setting": "[4]", "value": 0.78, "unit": "g/cc"}, {"measurement": "Granulation Density Tapped", "setting": "[4]", "value": 1.14, "unit": "g/cc"}, {"measurement": "Granulation Carr's Index", "setting": "[5]", "value": 26, "unit": "%"}, {"measurement": "Granulation Density As Is", "setting": "[5]", "value": 0.89, "unit": "g/cc"}, {"measurement": "Granulation Density Tapped", "setting": "[5]", "value": 1.19, "unit": "g/cc"}, {"measurement": "Granulation Carr's Index", "setting": "[6]", "value": 30, "unit": "%"}, {"measurement": "Granulation Density As Is", "setting": "[6]", "value": 0.67, "unit": "g/cc"}, {"measurement": "Granulation Density Tapped", "setting": "[6]", "value": 0.96, "unit": "g/cc"}, {"measurement": "Dry Granulation Carr's Index", "setting": "[7]", "value": 26, "unit": "%"}, {"measurement": "Dry Granulation Density As Is", "setting": "[7]", "value": 0.89, "unit": "g/cc"}, {"measurement": "Dry Granulation Density Tapped", "setting": "[7]", "value": 1.19, "unit": "g/cc"}, {"measurement": "Dry Granulation Carr's Index", "setting": "[8]", "value": 18, "unit": "%"}, {"measurement": "Dry Granulation Density As Is", "setting": "[8]", "value": 0.84, "unit": "g/cc"}, {"measurement": "Dry Granulation Density Tapped", "setting": "[8]", "value": 1.04, "unit": "g/cc"}, {"measurement": "Dry Granulation Carr's Index", "setting": "[9]", "value": 30, "unit": "%"}, {"measurement": "Dry Granulation Density As Is", "setting": "[9]", "value": 0.67, "unit": "g/cc"}, {"measurement": "Dry Granulation Density Tapped", "setting": "[9]", "value": 0.96, "unit": "g/cc"}, {"measurement": "Dry Granulation Carr's Index", "setting": "[10]", "value": 25, "unit": "%"}, {"measurement": "Dry Granulation Density As Is", "setting": "[10]", "value": 0.69, "unit": "g/cc"}, {"measurement": "Dry Granulation Density Tapped", "setting": "[10]", "value": 0.92, "unit": "g/cc"}, {"measurement": "Dry Blend Carr's Index", "setting": "[11]", "value": 47, "unit": "%"}, {"measurement": "Dry Blend density As Is", "setting": "[11]", "value": 0.49, "unit": "g/cc"}, {"measurement": "Dry Blend density Tapped", "setting": "[11]", "value": 0.92, "unit": "g/cc"}, {"measurement": "Dry Blend Carr's Index", "setting": "[12]", "value": 44, "unit": "%"}, {"measurement": "Dry Blend density As Is", "setting": "[12]", "value": 0.57, "unit": "g/cc"}, {"measurement": "Dry Blend density Tapped", "setting": "[12]", "value": 1.01, "unit": "g/cc"}, {"measurement": "Dry Granulation Density Tapped", "setting": "Table 7A, 55.76 wt % azithromycin, lactose anhydrous, corn starch, roller compaction 850 psi", "value": 0.86, "unit": "g/cc"}, {"measurement": "Dry Granulation Carr's Index", "setting": "[13]", "value": 24, "unit": "%"}, {"measurement": "Dry Granulation Density As Is", "setting": "[13]", "value": 0.66, "unit": "g/cc"}, {"measurement": "Dry Granulation Carr's Index", "setting": "[14]", "value": 39, "unit": "%"}, {"measurement": "Dry Granulation Density As Is", "setting": "[14]", "value": 0.55, "unit": "g/cc"}, {"measurement": "Dry Granulation Density Tapped", "setting": "[14]", "value": 0.91, "unit": "g/cc"}, {"measurement": "Dry Granulation Carr's Index", "setting": "[15]", "value": 33, "unit": "%"}, {"measurement": "Dry Granulation Density As Is", "setting": "[15]", "value": 0.60, "unit": "g/cc"}, {"measurement": "Dry Granulation Density Tapped", "setting": "[15]", "value": 0.90, "unit": "g/cc"}, {"measurement": "Dry Granulation Carr's Index", "setting": "[16]", "value": 30, "unit": "%"}, {"measurement": "Dry Granulation Density As Is", "setting": "[16]", "value": 0.64, "unit": "g/cc"}, {"measurement": "Dry Granulation Density Tapped", "setting": "[16]", "value": 0.92, "unit": "g/cc"}, {"measurement": "Dry Granulation Carr's Index", "setting": "[17]", "value": 26, "unit": "%"}, {"measurement": "Dry Granulation Density As Is", "setting": "[17]", "value": 0.66, "unit": "g/cc"}, {"measurement": "Dry Granulation Density Tapped", "setting": "[17]", "value": 0.92, "unit": "g/cc"}]}]}
